From publication PMC2772130 (Chemical research in toxicology, 2008)

Legend:
P450 1B1 [1] = biological target: T1, P450 1B1 (Homo sapiens, UniProt Q16678); assay: Quenching of P450 1B1; format: binding; conditions: extrapolated % quenching; 1.0 μM P450 1B1
T1 sequence (Q16678 1-543): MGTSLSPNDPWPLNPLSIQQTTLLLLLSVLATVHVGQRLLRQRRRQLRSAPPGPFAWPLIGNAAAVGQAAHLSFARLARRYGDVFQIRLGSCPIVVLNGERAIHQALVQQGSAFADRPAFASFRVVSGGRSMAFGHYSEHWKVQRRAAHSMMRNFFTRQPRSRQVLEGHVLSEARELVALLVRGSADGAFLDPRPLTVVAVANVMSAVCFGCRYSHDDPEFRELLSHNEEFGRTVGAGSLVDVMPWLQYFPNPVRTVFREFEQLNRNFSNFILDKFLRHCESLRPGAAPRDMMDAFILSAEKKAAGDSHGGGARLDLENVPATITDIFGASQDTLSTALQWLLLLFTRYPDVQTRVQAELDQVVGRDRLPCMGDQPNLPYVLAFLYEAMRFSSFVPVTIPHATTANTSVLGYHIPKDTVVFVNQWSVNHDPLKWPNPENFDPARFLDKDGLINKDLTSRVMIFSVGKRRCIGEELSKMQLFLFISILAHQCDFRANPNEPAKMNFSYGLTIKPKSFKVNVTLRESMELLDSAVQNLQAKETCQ

P450 1B1 [2] = biological target: T1, P450 1B1
P450 1B1 [3] = biological target: T1, P450 1B1; conditions: cited from earlier work
P450 1A1 [4] = biological target: T2, P450 1A1 (Homo sapiens, UniProt P04798); conditions: cited from earlier work
T2 sequence (P04798 1-512): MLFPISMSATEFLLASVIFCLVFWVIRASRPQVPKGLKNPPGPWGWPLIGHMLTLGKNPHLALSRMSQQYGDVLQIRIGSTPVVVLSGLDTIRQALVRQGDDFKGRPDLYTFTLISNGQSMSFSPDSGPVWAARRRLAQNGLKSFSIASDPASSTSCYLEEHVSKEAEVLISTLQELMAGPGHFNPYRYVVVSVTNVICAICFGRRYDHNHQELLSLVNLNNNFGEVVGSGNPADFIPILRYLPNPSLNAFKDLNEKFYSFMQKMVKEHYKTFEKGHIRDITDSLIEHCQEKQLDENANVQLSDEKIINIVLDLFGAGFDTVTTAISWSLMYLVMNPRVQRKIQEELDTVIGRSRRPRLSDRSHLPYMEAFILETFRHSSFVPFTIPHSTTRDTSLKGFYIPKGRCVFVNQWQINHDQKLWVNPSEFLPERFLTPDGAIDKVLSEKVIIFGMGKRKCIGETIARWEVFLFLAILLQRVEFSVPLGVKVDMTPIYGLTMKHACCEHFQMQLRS

P450 1B1 [5] = biological target: T1, P450 1B1; assay: Spectral binding titrations with purified P450 1B1; conditions: for wavelengths (peak/trough): 1 μM P450 1B1, pH 7.4
P450 1A1 [6] = biological target: T2, P450 1A1; assay: Quenching of inhibitor-derived fluorescence with P450 1A1; conditions: enzyme and inhibitor 10 nM; 25 °C
P450 1A2 [7] = biological target: T3, P450 1A2 (Homo sapiens, UniProt P05177); assay: Quenching of inhibitor-derived fluorescence with P450 1A2; conditions: enzyme and inhibitor 10 nM; 25 °C
T3 sequence (P05177 1-516): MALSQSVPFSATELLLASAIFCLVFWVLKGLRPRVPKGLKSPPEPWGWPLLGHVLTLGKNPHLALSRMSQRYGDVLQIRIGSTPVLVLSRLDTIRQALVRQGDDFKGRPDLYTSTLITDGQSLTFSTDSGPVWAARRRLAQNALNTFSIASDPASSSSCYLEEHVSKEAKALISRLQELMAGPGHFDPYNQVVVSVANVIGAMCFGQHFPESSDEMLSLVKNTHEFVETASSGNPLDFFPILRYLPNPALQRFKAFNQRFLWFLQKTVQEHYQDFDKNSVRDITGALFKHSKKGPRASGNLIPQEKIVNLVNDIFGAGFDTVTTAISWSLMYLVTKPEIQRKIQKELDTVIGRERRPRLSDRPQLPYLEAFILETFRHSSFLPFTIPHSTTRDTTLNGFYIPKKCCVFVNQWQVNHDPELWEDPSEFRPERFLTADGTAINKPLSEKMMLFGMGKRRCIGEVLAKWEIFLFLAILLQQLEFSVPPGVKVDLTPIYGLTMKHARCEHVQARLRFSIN

P450 1B1 [8] = biological target: T1, P450 1B1; assay: Quenching of PAH; conditions: for half-maximal time (t1/2) to decrease B[a]P emission: 10 nM P450 1B1, 25 °C
P450 1B1 [9] = biological target: T1, P450 1B1; assay: Inhibition of P450 1B1-dependent 7-ethoxyresorufin O-deethylation; conditions: for IC50: inhibition of EROD activity IC50, 15 s of incubation time (direct and direct/restore inhibitors), means and SE
P450 1A1 [10] = biological target: T2, P450 1A1; assay: Inhibition of P450 1A1-dependent EROD activity; format: biochemical; conditions: for fold increase in EROD Km of P450 1A1: 1PP 66 nM, 3PPh 333 nM
P450 1A2 [11] = biological target: T3, P450 1A2; assay: Inhibition of P450 1A2-dependent EROD activity; format: biochemical; conditions: 37 °C
P450 1A1 [12] = biological target: T2, P450 1A1; assay: Quenching of P450 fluorescence with inhibitors, P450 1A1; format: binding
P450 1A2 [13] = biological target: T3, P450 1A2; assay: Quenching of P450 fluorescence with inhibitors, P450 1A2; format: binding
P450 1A2 [14] = biological target: T3, P450 1A2; conditions: cited from earlier work

Row | Structure (SMILES) | PAH binding to P450 1B1 Bmax (P450 1B1 [1]) [%] | ΔAmax / Ks (P450 1B1 [2]) | mechanism of inhibition of P450 1B1 (P450 1B1 [3]) | mechanism of inhibition of P450 1A1 (P450 1A1 [4]) | Kd (P450 1B1 [5]) [nM] | wavelengths (peak/trough) (P450 1B1 [5]) | Kd (P450 1B1 [8]) [nM] | IC50 (P450 1B1 [9]) [nM] | mechanism of inhibition of P450 1A2 EROD activity (P450 1A2 [11]) | Kd (P450 1A1 [12]) [µM] | Kd (P450 1A2 [13]) [µM] | also measured
1 | C#Cc1ccc2ccc3cccc4ccc1c2c34 [1EP, 1-ethynylpyrene] | 74 ± 1 | 0.017 | direct inhibitors | mechanism-based manner | 2900 ± 1000 | 416/383 | 1.9 to 18 | 31 ± 4 | – | – | – | fluorescence quenching with P450 1A1 (P450 1A1 [6]): to a lesser extent with P450 1A1 than 1B1; interaction with P450 1A2 (fluorescence quenching) (P450 1A2 [7]): No interactions
2 | CC#Cc1ccc2ccc3cccc4ccc1c2c34 [1PP, 1-(1-propynyl)pyrene] | 69 ± 1 | 0.016 | direct inhibitors | mechanism-based manner | 2700 ± 400 | 416/383 | 1.9 to 18 | 22 ± 3 | mechanism-based manner | ~10 | ~10 | fold increase in EROD Km of P450 1A1 (P450 1A1 [10]; at 360 s): 10 fold; fold increase in EROD Km of P450 1A1 (P450 1A1 [10]; initial incubation time): ~ 8 fold; mechanism of inhibition of P450 1A1 EROD activity (P450 1A1 [10]; 37 °C, 30 min): mechanism-based inhibitors; EROD kcat of P450 1B1 relative to controls (P450 1B1 [9]; 1PP 66 nM, 3PPh 33 nM, after 6 min of incubation): 44%; fold increase in EROD Km of P450 1B1 (P450 1B1 [9]; 1PP 66 nM, 3PPh 33 nM, at 15 s): 6.8 fold; EROD kcat of P450 1B1 relative to control, first decrease (P450 1B1 [9]; initial stage of incubation): ~ one-fifth
3 | c1ccc2c(c1)cc1ccc3cccc4ccc2c1c34 [B[a]P, benzo[a]pyrene] | – | – | – | – | – | – | 11 | 31 ± 4 | directly inhibited by low concentration of B[a]P, but the inhibition was increased with time at higher B[a]P concentrations | ~10 | ~10 | mechanism of inhibition of P450 1A2 (P450 1A2 [14]): mechanism-based manner; half-maximal time (t1/2) to decrease B[a]P emission (P450 1B1 [8]; 2.5 nM B[a]P): 33 s; half-maximal time (t1/2) to decrease B[a]P emission (P450 1B1 [8]; 5 nM B[a]P): 15 s; half-maximal time (t1/2) to decrease B[a]P emission (P450 1B1 [8]; 10 nM B[a]P): 7.5 s
